Source: ChEMBL document CHEMBL1142401, “QSAR modeling of the rodent carcinogenicity of nitrocompounds” (2008)

Species: Rattus norvegicus
Assay: Anticarcinogenic activity in rat assessed as induction of tumors per day
Assay type: functional

For Nc1nnc(-c2ccc([N+](=O)[O-])o2)s1, the TD50 was 3.12 µmol/kg and the pTD50 was 0.494.
With O=[N+]([O-])c1cccc2cccnc12 the TD50 was 54.836 µmol/kg and the pTD50 was 1.739.
In the case of O=[N+]([O-])c1ccc(-c2nc(N3CCOCC3)c3ccccc3n2)s1, the TD50 is reported as 14.692 µmol/kg and the pTD50 is reported as 1.167.
In the case of CC(=O)Nc1nc(-c2ccc([N+](=O)[O-])o2)cs1, the TD50 is reported as 28.63 µmol/kg and the pTD50 is reported as 1.457.
O=[N+]([O-])c1ccc(-c2nnc(O)o2)o1 gave a TD50 of 43.682 µmol/kg and a pTD50 of 1.64.
In the case of O=C1NC(c2ccc([N+](=O)[O-])s2)Nc2ccccc21 (stereo not drawn), the TD50 is reported as 5.558 µmol/kg and the pTD50 is reported as 0.745.
O=[N+]([O-])c1ccc(-c2cnc3ccccn23)o1 showed a TD50 of 68.938 µmol/kg and a pTD50 of 1.838.
Molecule CC(C)=NNc1nc(-c2ccc([N+](=O)[O-])o2)cs1 has a TD50 of 22.721 µmol/kg and a pTD50 of 1.356.
Molecule Nc1nc(-c2ccc([N+](=O)[O-])o2)cs1 has a TD50 of 27.699 µmol/kg and a pTD50 of 1.442.
NC(=O)/C(=C\c1ccc([N+](=O)[O-])o1)c1ccco1 was tested, and the TD50 was 45.932 µmol/kg and the pTD50 was 1.662.
CC(=O)Nc1nc(NC(C)=O)nc(-c2ccc([N+](=O)[O-])o2)n1 gave a TD50 of 41.798 µmol/kg and a pTD50 of 1.621.
In the case of CC(C)(C)c1cc([N+](=O)[O-])cc([N+](=O)[O-])c1OS(C)(=O)=O, the TD50 is reported as 8.357 µmol/kg and the pTD50 is reported as 0.922.
Cc1cc(C)nc(-c2ccc([N+](=O)[O-])o2)n1 was tested, and the TD50 was 11.907 µmol/kg and the pTD50 was 1.076.
CC(=O)Nc1nnc(-c2ccc([N+](=O)[O-])o2)s1 was tested, and the TD50 was 34.773 µmol/kg and the pTD50 was 1.541.
Work on CC(=O)NCc1nc(-c2ccc([N+](=O)[O-])o2)no1 yielded a TD50 of 20.62 µmol/kg and a pTD50 of 1.314.
For CC(C)[N+](=O)[O-], the TD50 was 3288.692 µmol/kg and the pTD50 was 3.517.
CN(C)C/N=c1\[nH]nc(/C=C/c2ccc([N+](=O)[O-])o2)o1 was tested, and the TD50 was 73.052 µmol/kg and the pTD50 was 1.864.
NNc1nc(-c2ccc([N+](=O)[O-])o2)cs1 showed a TD50 of 12.51 µmol/kg and a pTD50 of 1.097.
CN(C)Nc1nc(-c2ccc([N+](=O)[O-])o2)cs1 gave a TD50 of 1.538 µmol/kg and a pTD50 of 0.187.
Work on Nc1nc(N)nc(-c2ccc([N+](=O)[O-])o2)n1 yielded a TD50 of 7.697 µmol/kg and a pTD50 of 0.886.
For CC(=O)OC(OC(C)=O)c1ccc([N+](=O)[O-])o1, the TD50 was 431.796 µmol/kg and the pTD50 was 2.635.
Work on O=[N+]([O-])c1ccc(-c2nc(NCCO)c3ccccc3n2)s1 yielded a TD50 of 12.139 µmol/kg and a pTD50 of 1.084.
With COc1c(Cl)c(Cl)c([N+](=O)[O-])c(Cl)c1Cl the TD50 was 65.65 µmol/kg and the pTD50 was 1.82.
In the case of O=C(Nc1nc(-c2ccc([N+](=O)[O-])o2)cs1)C(F)(F)F, the TD50 is reported as 18.164 µmol/kg and the pTD50 is reported as 1.259.
In the case of Nc1ncc([N+](=O)[O-])s1, the TD50 is reported as 223.922 µmol/kg and the pTD50 is reported as 2.35.
O=[N+]([O-])c1ccc2c3c(cccc13)CC2 showed a TD50 of 30.02 µmol/kg and a pTD50 of 1.48.
With Nc1nnc(-c2ccc([N+](=O)[O-])o2)o1 the TD50 was 13.971 µmol/kg and the pTD50 was 1.145.
Molecule Cl.O=C1OC(CN2CCOCC2)CN1/N=C/c1ccc([N+](=O)[O-])o1 (stereo not drawn) has a TD50 of 8.665 µmol/kg and a pTD50 of 0.938.
NNc1nc(-c2ccc([N+](=O)[O-])cc2)cs1 showed a TD50 of 3.145 µmol/kg and a pTD50 of 0.498.
Molecule O=CNc1nc(-c2ccc([N+](=O)[O-])o2)cs1 has a TD50 of 21.195 µmol/kg and a pTD50 of 1.326.
Molecule N/C(=N\O)c1ccc([N+](=O)[O-])o1 has a TD50 of 245.455 µmol/kg and a pTD50 of 2.39.
O=[N+]([O-])c1ccc2ccc3cccc4ccc1c2c34 [1-NITROPYRENE] was tested, and the TD50 was 13.468 µmol/kg and the pTD50 was 1.129.
COc1ccccc1[N+](=O)[O-] [2-NITROANISOLE] showed a TD50 of 69.87 µmol/kg and a pTD50 of 1.84.
With Nc1ccc([N+](=O)[O-])cc1 [4-NITROANILINE] the TD50 was 65.521 µmol/kg and the pTD50 was 1.816.
Cn1cnc([N+](=O)[O-])c1Sc1ncnc2[nH]cnc12 [AZATHIOPRINE] gave a TD50 of 36.428 µmol/kg and a pTD50 of 1.561.
For O=C(N[C@H](CO)[C@H](O)c1ccc([N+](=O)[O-])cc1)C(Cl)Cl [CHLORAMPHENICOL], the TD50 was 860.336 µmol/kg and the pTD50 was 2.935.
For Cc1ncc([N+](=O)[O-])n1C [DIMETRIDAZOLE], the TD50 was 120.458 µmol/kg and the pTD50 was 2.081.
CNc1ccc(N(CCO)CCO)cc1[N+](=O)[O-] [HC BLUE NO. 1] gave a TD50 of 1680.55 µmol/kg and a pTD50 of 3.23.
Molecule Cc1ncc([N+](=O)[O-])n1CCO [METRONIDAZOLE] has a TD50 of 356.989 µmol/kg and a pTD50 of 2.553.
Molecule O=C1NCCN1/N=C/c1ccc([N+](=O)[O-])o1 [NIFURADENE] has a TD50 of 23.646 µmol/kg and a pTD50 of 1.37.
CC1CN(/N=C/c2ccc([N+](=O)[O-])o2)C(=O)N1 (stereo not drawn) [NIFURIMIDE] showed a TD50 of 22.418 µmol/kg and a pTD50 of 1.351.
In the case of O=CNNc1nc(-c2ccc([N+](=O)[O-])o2)cs1 [NIFURTHIAZOLE], the TD50 is reported as 13.925 µmol/kg and the pTD50 is reported as 1.144.
In the case of CCNC(=O)Nc1ncc([N+](=O)[O-])s1 [NITHIAZIDE], the TD50 is reported as 605.88 µmol/kg and the pTD50 is reported as 2.78.
O=[N+]([O-])c1ccccc1 [NITROBENZENE] gave a TD50 of 47.681 µmol/kg and a pTD50 of 1.678.
CC[N+](=O)[O-] [NITROETHANE] was tested, and the TD50 was 29174.093 µmol/kg and the pTD50 was 4.465.
O=C1CN(/N=C/c2ccc([N+](=O)[O-])o2)C(=O)N1 [NITROFURANTOIN] was tested, and the TD50 was 228.001 µmol/kg and the pTD50 was 2.358.
Molecule NC(=O)N/N=C/c1ccc([N+](=O)[O-])o1 [NITROFURAZONE] has a TD50 of 32.907 µmol/kg and a pTD50 of 1.517.
O=[N+]([O-])OCC(CO[N+](=O)[O-])O[N+](=O)[O-] [NITROGLYCERIN] was tested, and the TD50 was 1448.787 µmol/kg and the pTD50 was 3.161.
With CCCN(CCC)c1c([N+](=O)[O-])cc(C(F)(F)F)cc1[N+](=O)[O-] [TRIFLURALIN] the TD50 was 17567.456 µmol/kg and the pTD50 was 4.245.
